From publication PMC6070540, “SUMO-mediated regulation of NLRP3 modulates inflammasome activity” (Nature Communications, 2018)

Assays:
FLAG-tagged human NLRP3 = assay: Sumoylation of NLRP3 in HEK293T cells (denaturing immunoprecipitation, immunoblot); type: cell-based; details: for sumoylation of mutant NLRP3: transfected HEK293T cells, compared to WT NLRP3
Procedure: (§1) For sumoylation and ubiquitination assays 2 × 10^6 HEK293T cells were plated in 10 cm dishes and transfected with a total of 7.5 μg of DNA the following day. A modified version of “Detection of Sumoylated Proteins by Immunoprecipitation Analysis”[61] was used. Briefly, 16 h post-transfection cells were lysed in SDS lysis buffer (1% SDS, 0.15 M Tris-HCl pH 6.8 and 30% Glycerol). Lysates were boiled for 5 min and diluted 10 × in PBS-T (PBS and 1% Triton-X 100) supplemented with PR-619 (50 μM) and complete protease inhibitors. Cell lysates were sonicated for 20 s then clarified at 4 °C at 13,000 rpm for 10 min. A 20 μl of α-HA beads (SIGMA) or α-FLAG M2 beads (SIGMA) was rotated with cleared protein lysates at 4 °C for 4 h. Furthermore, 4× washes in PBS-T, supplemented with PR-619 (20 μM) and complete protease inhibitors, were performed, and samples eluted by boiling in 60 μl 1× SDS loading dye. Samples were separated by SDS-PAGE using Bolt 8% Bis-Tris plus 1.0 mm 12 well precast protein gels (Life Technologies) in MOPS buffer. Where necessary, the modification smears were quantified using Image Lab Software (Bio-Rad) and normalised to total immunoprecipitated NLRP3 in biological triplicate.

[1] = system: endogenous NLRP3 and SUMO-2/-3; assay: Proximity ligation assay (PLA) NLRP3/SUMO-2/-3; type: cell-based, murine; details: immortalised WT BMDMs; LPS 4 h followed by 10 µM nigericin 30 min or 5 mM ATP 20 min (ATP n = 1)
Procedure: (§2) For immunofluorescence staining, 1.5 × 10^5 cells were plated on 13 mm glass cover slips (VWR). Cells were either left untreated, or treated with LPS (500 ng/ml) for 4 h followed or not by 10 µM nigericin for 30 min or 5 mM ATP for 20 min, before being fixed in 4% paraformaldehyde for 10 min. Following 10 min permeabilization with PBS containing 0.5% Triton X-100, cells were incubated for 1 h in 5% BSA in PBS. Respective primary antibodies were then added as follows: mouse α-NLRP3 (AG-20B-0014, AdipoGen, 1:1000), rabbit α-SUMO-2/3 (4971, Cell Signalling, 1:1000), rabbit α-ASC (AG-25B-0006, AdipoGen, 1:200) and rabbit α-MAPL (ab84067, Abcam, 1:1000). Alexa Fluor 633-conjugated Phalloidin (Invitrogen, 1:500) was used to stain actin filaments. Secondary fluorescent conjugated antibodies were then added as follows: 1:1000 CF488A-donkey α-mouse and 1:1000 CF488-donkey α-rabbit. Nuclei were stained with DAPI (Invitrogen). Cells were visualised by confocal microscopy (objective× 40, Zeiss LSM710). PLA was performed according to the manufacturer’s protocol using the Duolink Detection Kit (Cambridge BioScience Ltd). […] The number of fluorescent spots in 50 cells were quantified using ImageJ and data analysed using two-way ANOVA multiple comparison test or two-tailed Student’s t-test using Prism 7, Graphpad.

NLRP3 and ASC = assay: PLA NLRP3/ASC (inflammasome formation); type: cell-based, murine; details: WT BMDMs; LPS 4 h followed by 10 µM nigericin 30 min or 5 mM ATP 20 min (ATP n = 1)
Procedure: as §2

FLAG-NLRP3 = assay: Ubiquitylation of NLRP3 in HEK293T cells (immunoprecipitation, immunoblot); type: cell-based, human
Procedure: as §1

caspase-1 = assay: Caspase-1 cleavage assay in 293T-ASC-caspase-1 cells; type: cell-based, human; details: transfected 293T-ASC-caspase-1 cells; p20 immunoblot
Procedure: For caspase-1 cleavage assays 1 × 10^5 HEK293T-ASC-caspase-1 cells were plated in 24-well plates and transfected with a total of 600 ng of DNA the following day. Cells were lysed in 80 μl of DISC lysis buffer (20 mM Tris-HCL pH 7.5, 150 mM NaCl, 2 mM EDTA, 1% Triton X-100, 10% Glycerol) supplemented with 2% SDS. To shred genomic DNA cell lysates were passed through 0.8 ml columns (Pierce). Lysates were quantified using BCA protein assay kit (Pierce) and 6× SDS loading dye added. Samples were boiled for 5 min before separating by SDS-PAGE using NuPAGE Novex 4–12% Bis-Tris 1.0 mm 20 well precast midi protein gels (Life Technologies) in MES buffer. Caspase-1 p20 antibody (Bally-1, human, Adipogen) was used to detect total and cleaved caspase-1 in cell lysate.

SUMO-2/-3 proteome = assay: Global sumoylation (RanGAP1, total SUMO-2/-3 proteome); type: cell-based, human; details: HEK293T cells, nigericin
Procedure: as §1

NLRP3 and MAPL = assay: PLA NLRP3/MAPL; type: cell-based, murine; details: WT BMDMs; untreated, LPS 4 h, or LPS 4 h followed by 10 µM nigericin 30 min; biological triplicate
Procedure: as §2

NLRP3, SUMO-2/-3, MAPL = assay: Immunofluorescence staining of NLRP3, SUMO-2/-3, MAPL; type: cell-based, murine; details: BMDMs
Procedure: as §2

NLRP3^E692K: reported CAPS disease mutant
sumoylation of mutant NLRP3 (FLAG-tagged human NLRP3): did not reduce the overall sumoylation smearing pattern

Nc1ncnc2c1ncn2[C@@H]1O[C@H](COP(=O)(O)OP(=O)(O)OP(=O)(O)O)[C@@H](O)[C@H]1O [ATP]
NLRP3-SUMO-2/-3 PLA signals upon inflammasome activation [1]: significantly reduced proximity labelling of NLRP3 and SUMO-2/-3 | NLRP3-ASC inflammasome complexes (PLA) (NLRP3 and ASC): specifically formed upon treatment with LPS and nigericin or ATP

NLRP3^K689R: full length NLRP3 with K689 mutated to R
sumoylation of mutant NLRP3 (FLAG-tagged human NLRP3): no effect | ubiquitylation of mutant NLRP3 (FLAG-NLRP3; transfected HEK293T cells, compared to WT NLRP3): no effect | ability of NLRP3 to activate caspase-1 (caspase-1): hyperactive in driving caspase-1 cleavage

N#CSc1cc(SC#N)c(N)nc1N [PR-619]
appearance of sumoylated NLRP3 (FLAG-tagged human NLRP3; HEK293T cells transfected with FLAG-tagged human NLRP3, endogenous SUMO-2/-3, immunoblot, in the presence vs absence of compound): significantly enhanced the appearance of sumoylated NLPR3

NLRP3^E690K: reported CAPS disease mutant
sumoylation of mutant NLRP3 (FLAG-tagged human NLRP3): did not reduce the overall sumoylation smearing pattern

CO[C@@H]1C[C@@H](C[C@H]2CC[C@H](C)[C@H]([C@@H](C)C(=O)O)O2)O[C@]2(O[C@](C)([C@H]3CC[C@@](C)([C@@H]4O[C@@H]([C@H]5O[C@@](O)(CO)[C@H](C)C[C@@H]5C)C[C@@H]4C)O3)C[C@H]2C)[C@@H]1C [nigericin]
sumoylated NLRP3 after stimulation (FLAG-tagged human NLRP3; HEK293T cells expressing FLAG-NLRP3, nigericin time course, normalised to total immunoprecipitated NLRP3, three independent experiments): induced notable reduction of sumoylated NLRP3 | ubiquitylated NLRP3 after stimulation (FLAG-NLRP3; HEK293T cells expressing FLAG-NLRP3, nigericin time course, three independent experiments): less ubiquitylated | sumoylation of RanGAP1 (SUMO-2/-3 proteome; selectivity control): remained sumoylated | overall smearing pattern of total SUMO-2/-3 proteome (SUMO-2/-3 proteome; total cell lysates): no apparent change | NLRP3-SUMO-2/-3 PLA signals upon inflammasome activation [1]: significantly reduced proximity labelling of NLRP3 and SUMO-2/-3 | NLRP3-ASC inflammasome complexes (PLA) (NLRP3 and ASC): specifically formed upon treatment with LPS and nigericin or ATP | MAPL/NLRP3 proximity signals (NLRP3 and MAPL): almost completely abolished MAPL/NLRP3 proximity signals | general expression of NLRP3 and SUMO-2/-3 (NLRP3, SUMO-2/-3, MAPL; LPS and nigericin, immunofluorescence): unaffected | MAPL staining (NLRP3, SUMO-2/-3, MAPL; nigericin, conventional immunofluorescence): caused a decrease in MAPL staining

B1: WT MAPL: mitochondrial-anchored protein ligase, SUMO E3 ligase (protein)
chain: MESGGRPSLCQFILLGTTSVVTAALYSVYRQKARVSQELKGAKKVHLGEDLKSILSEAPGKCVPYAVIEGAVRSVKETLNSQFVENCKGVIQRLTLQEHKMVWNRTTHLWNDCSKIIHQRTNTVPFDLVPHEDGVDVAVRVLKPLDSVDLGLETVYEKFHPSIQSFTDVIGHYISGERPKGIQETEEMLKVGATLTGVGELVLDNNSVRLQPPKQGMQYYLSSQDFDSLLQRQESSVRLWKVLALVFGFATCATLFFILRKQYLQRQERLRLKQMQEEFQEHEAQLLSRAKPEDRESLKSACVVCLSSFKSCVFLECGHVCSCTECYRALPEPKKCPICRQAITRVIPLYNS
modifications: left off: 2xHA, end not stated, kept | 2xSTREP, end not stated, state not stated
sumoylation of NLRP3 by co-expressed MAPL (FLAG-tagged human NLRP3; FLAG-NLRP3 purified under denaturing conditions, HEK293T, three independent experiments): sumoylated NLRP3
